Measured values: BindingDB's records for patent US20230322769 (Jiangsu Chia Tai Fenghai Pharmaceutical, 2023)
Several values for one entry are separate records, joined by “and”; a condition that tells them apart may be missing. Identical values can stand only once.

Legend:
[1] = target: Coiled-coil domain-containing protein 6/Proto-oncogene tyrosine-protein kinase receptor Ret (Homo sapiens, UniProt P07949); assay: Inhibition of RET Family Kinases Activity
[2] = target: Proto-oncogene tyrosine-protein kinase receptor Ret (Homo sapiens, UniProt P07949); assay: Inhibition of RET Family Kinases Activity
[3] = target: Proto-oncogene tyrosine-protein kinase receptor Ret [M918T] (Homo sapiens, UniProt P07949, M918T); assay: Inhibition of RET Family Kinases Activity
[4] = target: Proto-oncogene tyrosine-protein kinase receptor Ret [V804M] (Human, UniProt P07949, V804M); assay: Inhibition of RET Family Kinases Activity
[5] = target: Vascular endothelial growth factor receptor 2 (Homo sapiens, UniProt P35968); assay: Inhibition of RET Family Kinases Activity
[6] = target: Potassium voltage-gated channel subfamily H member 2 (Homo sapiens, UniProt Q12809); assay: Inhibition of hERG Potassium Channel
Procedure: Whole-cell patch-clamp recording was carried out. […] This procedure was repeated every 20 seconds. The hERG tail current was a pure hERG current.

Proto-oncogene tyrosine-protein kinase receptor Ret [M918T], sequence (P07949 29-1114 M918T limits assumed): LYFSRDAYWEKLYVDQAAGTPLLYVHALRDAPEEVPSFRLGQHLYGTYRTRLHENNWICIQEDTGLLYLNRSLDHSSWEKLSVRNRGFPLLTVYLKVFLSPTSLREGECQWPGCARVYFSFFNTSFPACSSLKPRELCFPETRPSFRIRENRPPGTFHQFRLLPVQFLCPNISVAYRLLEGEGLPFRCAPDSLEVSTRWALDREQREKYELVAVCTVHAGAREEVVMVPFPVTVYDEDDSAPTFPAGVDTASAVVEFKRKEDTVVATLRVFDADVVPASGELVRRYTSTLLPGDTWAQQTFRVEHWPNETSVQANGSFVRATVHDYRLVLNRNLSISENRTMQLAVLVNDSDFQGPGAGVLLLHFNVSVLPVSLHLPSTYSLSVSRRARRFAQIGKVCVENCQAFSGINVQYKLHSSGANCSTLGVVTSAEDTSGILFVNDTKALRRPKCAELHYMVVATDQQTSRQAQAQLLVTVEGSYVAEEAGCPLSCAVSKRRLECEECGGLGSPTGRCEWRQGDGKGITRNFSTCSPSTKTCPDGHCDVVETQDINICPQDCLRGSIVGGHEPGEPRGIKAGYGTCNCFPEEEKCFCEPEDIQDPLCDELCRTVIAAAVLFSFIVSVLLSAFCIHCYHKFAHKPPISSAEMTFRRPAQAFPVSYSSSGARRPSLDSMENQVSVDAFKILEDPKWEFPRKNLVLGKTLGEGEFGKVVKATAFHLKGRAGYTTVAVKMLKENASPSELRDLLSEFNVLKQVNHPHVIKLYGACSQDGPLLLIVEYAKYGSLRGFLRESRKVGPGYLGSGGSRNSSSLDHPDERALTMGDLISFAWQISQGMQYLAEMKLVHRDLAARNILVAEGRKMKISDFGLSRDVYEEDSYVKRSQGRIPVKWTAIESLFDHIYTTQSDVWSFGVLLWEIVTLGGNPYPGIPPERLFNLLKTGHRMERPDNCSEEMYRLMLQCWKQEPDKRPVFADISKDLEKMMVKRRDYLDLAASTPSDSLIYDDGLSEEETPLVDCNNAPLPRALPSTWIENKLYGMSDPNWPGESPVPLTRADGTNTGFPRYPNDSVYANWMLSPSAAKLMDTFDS
Vascular endothelial growth factor receptor 2, sequence (P35968 whole entry): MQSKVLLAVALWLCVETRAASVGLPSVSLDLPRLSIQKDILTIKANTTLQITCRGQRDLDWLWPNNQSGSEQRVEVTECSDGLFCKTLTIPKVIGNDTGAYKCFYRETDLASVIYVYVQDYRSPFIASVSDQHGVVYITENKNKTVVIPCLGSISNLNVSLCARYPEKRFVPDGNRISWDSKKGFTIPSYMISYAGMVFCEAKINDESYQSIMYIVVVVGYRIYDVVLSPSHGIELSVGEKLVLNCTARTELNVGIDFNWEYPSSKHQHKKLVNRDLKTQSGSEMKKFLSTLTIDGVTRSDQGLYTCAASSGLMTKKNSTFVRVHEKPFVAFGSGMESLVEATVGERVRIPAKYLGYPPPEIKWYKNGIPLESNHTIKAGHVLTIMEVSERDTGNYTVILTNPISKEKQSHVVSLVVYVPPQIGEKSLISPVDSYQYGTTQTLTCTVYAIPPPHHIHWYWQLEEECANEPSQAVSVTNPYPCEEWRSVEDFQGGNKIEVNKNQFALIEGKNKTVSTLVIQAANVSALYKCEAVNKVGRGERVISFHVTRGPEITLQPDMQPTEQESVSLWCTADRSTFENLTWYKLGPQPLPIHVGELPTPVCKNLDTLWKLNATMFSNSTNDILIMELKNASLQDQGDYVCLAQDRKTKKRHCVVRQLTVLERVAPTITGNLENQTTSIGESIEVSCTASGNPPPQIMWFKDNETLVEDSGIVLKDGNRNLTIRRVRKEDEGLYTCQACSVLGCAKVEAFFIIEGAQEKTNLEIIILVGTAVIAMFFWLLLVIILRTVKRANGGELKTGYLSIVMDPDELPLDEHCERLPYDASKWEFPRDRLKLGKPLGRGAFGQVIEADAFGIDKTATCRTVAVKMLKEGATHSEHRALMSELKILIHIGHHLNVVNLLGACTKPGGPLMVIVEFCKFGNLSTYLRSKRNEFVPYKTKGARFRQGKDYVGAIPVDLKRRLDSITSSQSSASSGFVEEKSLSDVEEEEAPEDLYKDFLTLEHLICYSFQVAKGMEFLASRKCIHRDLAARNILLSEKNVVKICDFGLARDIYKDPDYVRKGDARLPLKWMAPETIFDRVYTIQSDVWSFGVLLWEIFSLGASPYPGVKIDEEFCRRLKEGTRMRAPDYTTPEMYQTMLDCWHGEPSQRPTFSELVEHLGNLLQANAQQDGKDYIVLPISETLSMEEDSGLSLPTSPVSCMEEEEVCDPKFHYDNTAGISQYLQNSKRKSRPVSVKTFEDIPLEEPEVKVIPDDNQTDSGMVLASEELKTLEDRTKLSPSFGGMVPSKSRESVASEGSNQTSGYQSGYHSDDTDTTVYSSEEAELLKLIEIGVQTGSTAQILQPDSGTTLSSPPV
Proto-oncogene tyrosine-protein kinase receptor Ret [V804M], sequence (P07949 29-1114 V804M limits assumed): as the sequence (P07949 29-1114 M918T limits assumed) above, with V776M, T890M counted along it
Coiled-coil domain-containing protein 6/Proto-oncogene tyrosine-protein kinase receptor Ret, sequence (P07949 whole entry, the tested form may be a part): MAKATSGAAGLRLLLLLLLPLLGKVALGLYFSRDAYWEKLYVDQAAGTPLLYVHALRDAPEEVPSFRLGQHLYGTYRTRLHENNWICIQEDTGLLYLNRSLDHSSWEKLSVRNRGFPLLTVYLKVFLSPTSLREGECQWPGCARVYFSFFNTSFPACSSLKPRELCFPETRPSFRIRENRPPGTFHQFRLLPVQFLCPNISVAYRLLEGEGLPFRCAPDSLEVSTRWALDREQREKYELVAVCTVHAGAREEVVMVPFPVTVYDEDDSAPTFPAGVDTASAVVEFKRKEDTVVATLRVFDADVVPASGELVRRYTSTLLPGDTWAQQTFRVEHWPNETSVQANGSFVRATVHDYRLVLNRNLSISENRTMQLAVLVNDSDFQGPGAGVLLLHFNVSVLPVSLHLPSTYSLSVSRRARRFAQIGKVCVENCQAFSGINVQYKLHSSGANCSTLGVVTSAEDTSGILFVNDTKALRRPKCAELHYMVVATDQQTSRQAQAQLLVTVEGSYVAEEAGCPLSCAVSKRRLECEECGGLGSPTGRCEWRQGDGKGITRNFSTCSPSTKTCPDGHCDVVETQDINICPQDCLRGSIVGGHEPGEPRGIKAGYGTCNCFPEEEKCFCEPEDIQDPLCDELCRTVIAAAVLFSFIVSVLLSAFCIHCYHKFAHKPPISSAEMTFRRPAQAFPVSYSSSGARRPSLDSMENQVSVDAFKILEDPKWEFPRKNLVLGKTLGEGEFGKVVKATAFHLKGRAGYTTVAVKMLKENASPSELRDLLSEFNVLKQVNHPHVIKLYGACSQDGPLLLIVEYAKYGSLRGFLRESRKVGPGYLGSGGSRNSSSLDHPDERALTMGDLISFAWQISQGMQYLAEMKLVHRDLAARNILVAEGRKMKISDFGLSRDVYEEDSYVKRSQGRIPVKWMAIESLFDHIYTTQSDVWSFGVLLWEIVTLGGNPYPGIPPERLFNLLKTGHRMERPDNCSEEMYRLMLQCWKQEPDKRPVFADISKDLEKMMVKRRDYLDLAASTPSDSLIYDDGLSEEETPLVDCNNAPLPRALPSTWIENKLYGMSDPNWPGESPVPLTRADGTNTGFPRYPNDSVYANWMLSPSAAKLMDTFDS
Coiled-coil domain-containing protein 6/Proto-oncogene tyrosine-protein kinase receptor Ret, sequence (Q16204 whole entry, further chain, the tested form may be a part): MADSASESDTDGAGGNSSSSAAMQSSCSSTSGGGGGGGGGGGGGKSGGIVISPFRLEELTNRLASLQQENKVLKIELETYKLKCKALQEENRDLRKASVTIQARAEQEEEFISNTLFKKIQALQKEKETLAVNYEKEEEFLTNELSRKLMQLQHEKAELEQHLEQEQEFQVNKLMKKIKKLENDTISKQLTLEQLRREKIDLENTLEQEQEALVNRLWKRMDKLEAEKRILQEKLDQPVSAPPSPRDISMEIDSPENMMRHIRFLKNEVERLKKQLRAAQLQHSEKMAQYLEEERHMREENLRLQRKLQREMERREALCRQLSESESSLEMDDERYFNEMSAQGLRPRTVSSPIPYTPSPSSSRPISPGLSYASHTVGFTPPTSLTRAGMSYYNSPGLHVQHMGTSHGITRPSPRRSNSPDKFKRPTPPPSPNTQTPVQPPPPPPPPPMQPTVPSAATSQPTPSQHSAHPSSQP
Proto-oncogene tyrosine-protein kinase receptor Ret, sequence (P07949 whole entry): as the sequence (P07949 whole entry, the tested form may be a part) above

`COc1ccc(CN2C3CC2CN(c2ccc(-c4cc(NCC(C)(C)O)cn5ncc(C#N)c45)cn2)C3)cn1` [US20230322769, Compound 78] showed an IC50 [1] of 4.6 nM, an IC50 [2] of 1.28 nM and an IC50 [3] of 5.47 nM. The IC50 [4] was 8.23 nM and the IC50 [5] was 51.9 nM.
With `COc1ccc(CN2C3CC2CN(c2ccc(-c4cc(N5CCN(C)CC5)cn5ncc(C#N)c45)cn2)C3)cn1` [US20230322769, Compound 94] the IC50 [1] was 3 nM, the IC50 [3] was 2.78 nM and the IC50 [5] was 154 nM.
`COc1ccc(CN2C3CC2CN(c2ccc(-c4cc(N5CCP(C)(=O)CC5)cn5ncc(C#N)c45)cn2)C3)cn1` [US20230322769, Compound 20] gave an IC50 [1] of 2.14 nM, an IC50 [2] of 4.1 nM and an IC50 [3] of 1.45 nM. The IC50 [4] was 3.23 nM and the IC50 [5] was 340 nM.
Compound `COc1ccc(CN2C3CC2CN(c2ccc(-c4cc(N5CCNCC5)cn5ncc(C#N)c45)cn2)C3)cn1` [US20230322769, Compound 96] has an IC50 [2] of 5.24 nM and an IC50 [5] of 240 nM.
With `COc1ccc(CN2C3CC2CN(c2ccc(-c4cc(N5CCOCC5)cn5ncc(C#N)c45)cn2)C3)cn1` [US20230322769, Compound 65] the IC50 [1] was 0.52 nM, the IC50 [2] was 1.09 nM and the IC50 [3] was 0.92 nM. The IC50 [4] was 3.37 nM and the IC50 [5] was 92.8 nM.
With `COc1ccc(CN2C3CC2CN(c2ccc(-c4cc(N5CC6CC(C5)N6C)cn5ncc(C#N)c45)cn2)C3)cn1` [US20230322769, Compound 17] the IC50 [2] was 5.5 nM, the IC50 [3] was 1.7 nM and the IC50 [4] was 3.82 nM. It also gave an IC50 [5] of 551 nM.
`COc1ccc(CN2CCN(c3nc(-c4cc(-c5cnn(C)c5)cn5ncc(C#N)c45)cs3)CC2)cn1` [US20230322769, Compound 39] showed an IC50 [2] of 98.3 nM, an IC50 [3] of 326 nM and an IC50 [4] of 860 nM.
With `COc1ccc(CN2C3CC2CN(c2ccc(-c4cc(N5CCN(C)C(=O)C5)cn5ncc(C#N)c45)cn2)C3)cn1` [US20230322769, Compound 89] the IC50 [1] was 3.04 nM, the IC50 [2] was 0.674 nM and the IC50 [3] was 1.47 nM. The IC50 [4] was 4.72 nM and the IC50 [5] was 157 nM.
`COc1ccc(CN2C3CC2CN(c2ccc(-c4cc(N(CC5CC5)CC(C)(C)O)cn5ncc(C#N)c45)cn2)C3)cn1` [US20230322769, Compound 81] gave an IC50 [2] of 193 nM and an IC50 [5] of 612 nM.
`COc1ccc(C(=O)N2CCN(c3ccc(-c4cc(-c5cc6n(n5)CCC6)cn5ncc(C#N)c45)cn3)CC2)cn1` [US20230322769, Compound 68] was tested, and the IC50 [1] was 6.01 nM, the IC50 [2] was 12.6 nM and the IC50 [3] was 10.7 nM. It also gave an IC50 [4] of 26.3 nM and an IC50 [5] of 186 nM.
`COc1ccc(CN2C3CC2CN(c2ccc(-c4cc(N5CCOC(C)C5)cn5ncc(C#N)c45)cn2)C3)cn1` (stereo unspecified) [US20230322769, Compound 83] gave an IC50 [2] of 15.8 nM.
For `COc1ccc(CN2C3CC2CN(c2ccc(-c4cc(N5CC6CC(C5)N6)cn5ncc(C#N)c45)cn2)C3)cn1` [US20230322769, Compound 16], the IC50 [1] was 3.65 nM, the IC50 [2] was 8.4 nM and the IC50 [3] was 2.42 nM. For the same compound, the IC50 [4] was 4.78 nM and the IC50 [5] was 406 nM.
`COc1ccc(CN2C3CC2CN(c2ccc(-c4cc(N5CCOC[C@@H]5C)cn5ncc(C#N)c45)cn2)C3)cn1` [US20230322769, Compound 84] showed an IC50 [2] of 24.8 nM.
Compound `COc1ccc(CN(C)CCN(C)c2ccc(-c3cc(-c4cnn(C)c4)cn4ncc(C#N)c34)cn2)cn1` [US20230322769, Compound 17-a] has an IC50 [1] of 17.2 nM, an IC50 [2] of 27.9 nM and an IC50 [3] of 48.4 nM. The IC50 [4] was 128 nM.
Work on `COc1ccc(CN2C3CC2CN(c2ccc(-c4cc(N5CCOC[C@H]5C)cn5ncc(C#N)c45)cn2)C3)cn1` [US20230322769, Compound 85] yielded an IC50 [2] of 19 nM.
`COc1ccc(CN2C3CC2CN(c2ccc(-c4cc(N5CCCC(O)C5)cn5ncc(C#N)c45)cn2)C3)cn1` (stereo unspecified) [US20230322769, Compound 82] showed an IC50 [2] of 10.7 nM and an IC50 [5] of 280 nM.
In the case of `COc1ccc(CN2C3CC2CN(c2ccc(-c4cc(N5CC(C)(C)OC5C5CC5)cn5ncc(C#N)c45)cn2)C3)cn1` (stereo unspecified) [US20230322769, Compound 80], the IC50 [2] is reported as 21.6 nM and the IC50 [5] is reported as 566 nM.
`COc1ccc(CN2CCC(n3cc(-c4cc(-c5cnn(C)c5)cn5ncc(C#N)c45)cn3)CC2)cn1` [US20230322769, Compound 43] showed an IC50 [2] of 30.9 nM, an IC50 [3] of 53.1 nM and an IC50 [4] of 242 nM.
In the case of `COc1ccc(CN2CCCN(c3ccc(-c4cc(-c5cc6n(n5)CCC6)cn5ncc(C#N)c45)cn3)CC2)cn1` [US20230322769, Compound 70], the IC50 [1] is reported as 30.7 nM, the IC50 [2] is reported as 26.6 nM and the IC50 [3] is reported as 42.8 nM. The IC50 [4] was 111 nM, the IC50 [5] was 387 nM and the IC50 [6] was 4740 nM.
With `COc1ccc(CN2C3CC2CN(c2ccc(-c4cc(N5CC6(COC6)C5)cn5ncc(C#N)c45)cn2)C3)cn1` [US20230322769, Compound 88] the IC50 [2] was 7.22 nM and the IC50 [5] was 96.9 nM.
In the case of `COc1ccc(CN2C3CC2CN(c2ccc(-c4cc(-c5cc6n(n5)CCC6)cn5ncc(C#N)c45)cn2)C3)cn1` [US20230322769, Compound 66], the IC50 [2] is reported as 2.24 nM, the IC50 [3] is reported as 4.06 nM and the IC50 [4] is reported as 4.33 nM and 7.69 nM.
In the case of `COc1ccc(CN2C3CC2CN(c2ccc(-c4cc(N5CC(C)(O)C5)cn5ncc(C#N)c45)cn2)C3)cn1` [US20230322769, Compound 86], the IC50 [2] is reported as 4.56 nM and the IC50 [5] is reported as 71.3 nM.
